Entries after “also recorded” stand apart in the source; their conditions may differ.
Experiments:
[1] = test system: triple-negative breast cancer (TNBC) cell lines; test: Live cell ATP sensor imaging after compound treatment, TNBC cell lines; assay type: cell-based
Protocol: (§1) Cancer cell lines stably expressing a genetically encoded, fluorescent ATP sensor or a control (non-ATP binding) sensor were generated. Cell lines were cultured in recommended media conditions except for studies evaluating the effects of the glutaminase-1 (GLS1) inhibitor CB-839, for which cells were adapted to RPMI supplemented with 10% FBS prior to experimentation. […] Cellular ATP levels were measured over the course of hours to days following compound treatment.
(§2) A live cell imaging approach was then utilized to evaluate the effect of cancer therapeutics on ATP levels in tumor cell lines, focusing primarily on compounds that target metabolic vulnerabilities. […] Quantification of phase confluence confirmed that sustained decreases in ATP were associated with enhanced antiproliferative efficacy compared to conditions under which recovery of ATP levels were observed.

[2] = test system: receptor-positive breast cancer lines; test: Live cell ATP sensor imaging after compound treatment, receptor-positive breast cancer lines; assay type: cell-based
Protocol: as §1, §2

Structure (SMILES): O=C(Cc1cccc(OC(F)(F)F)c1)Nc1ccc(CCCCc2nnc(NC(=O)Cc3ccccn3)s2)nn1 [CB-839]
- effect on ATP levels in co-culture ([1]; TNBC cultured on a monolayer of CCD-1068Sk fibroblasts): diminished effects on ATP levels; also recorded: attenuated by co-culture with CCD-1068Sk fibroblasts
- effect on ATP levels ([1]; TNBC, mono-culture, three-day time course): rapid drop in ATP; also recorded: remained below that of vehicle-treated cells for the duration of the three-day time course; also recorded: prolonged ATP depletion
- effect on ATP levels ([2]; receptor-positive cell lines, mono-culture): no change to more modest decreases in ATP
- time to recovery of ATP levels ([2]; receptor-positive cells): ≤ 48 h
- effect of co-culture on the ATP response ([2]; receptor-positive lines with CCD-1068Sk fibroblasts): unaffected by the presence of CCD-1068Sk fibroblasts

From patent US12158470B2, “Methods and compositions for live cell analysis of intracellular ATP” (Sartorius BioAnalytical Instruments, Inc., priority 2018, dated 2024)
